Measured values as given in paper PMC10885115, “Susceptibility of Tetranychus urticae to the Alkaloidal Extract of Zanthoxylum schreberi Bark: Phenotypic and Biochemical Insights for Biotechnological Exploitation” (BioTech, 2024).
Several values for one entry are separate records, joined by “and”; a condition that tells them apart may be missing. Identical values can stand only once. Like-named read-outs stand apart in the source and are kept apart here.

What was measured:
P450 monooxygenase (PMO) = assay: PMO inhibition in T. urticae protein homogenate; format: biochemical, Tetranychus urticae; details: pure compounds, read-out: PMO IC50 (95% interval confidence)
Description: (§1) The protein homogenate from T. urticae adult females (n = 50) was prepared by homogenizing them in 500 μL of 0.1 M phosphate buffer (pH 7.2) in an ice bath. After homogenization, the mixture was centrifuged at 12,000× g for 20 min at 4 °C. Both untreated mites and those treated with 0.5% Z. schreberi bark extract were processed similarly. The protein content within the homogenate was quantified using the linearized Bradford micromethod, employing bovine serum albumin as an external standard. A calibration curve was established based on the ratio of absorbance measurements at 590 nm and 450 nm, ensuring linearity with varying protein concentrations. The resulting supernatant was subsequently stored at −20 °C for further enzyme analysis.
The PMO activity was measured by reducing hydrogen peroxide to oxidize 3,3′,5,5′-tetramethylbenzidine (TMBZ), following a previous procedure. Briefly, the protein homogenate (20 µL) was mixed in a microtiter plate well with 6 mM TMBZ (200 µL) working solution (TMBZ (0.01 g) in methanol (5 mL) and 0.25 M sodium acetate (pH 5.0, 15 mL)) and 3% H2O2 (25 µL) for 30 min at 25 °C. After this incubation period, the absorbance was read at 630 nm on a Varioskan LUX 96-well plate reader (Thermo Fisher Scientific, Waltham, MA, USA). The standard curve of heme peroxidase activity was prepared using Cytochrome C from equine heart (Merck, Milwakee, WI, USA). Total Cytochrome P450 monoxygenase was expressed as µmoles of Cytochrome P450 equivalent units (CPEU)/min/mg protein.
(§2) Further investigation involved determining the inhibition of the test enzymes (i.e., AChE, GST, esterase, and PMO). […] The final absorbance measurements of each treatment (At) and control (Ac) were related to the calculated enzyme inhibition percentage using Equation (3). (3) Enzyme Inhibition (%)=[…]
(§3) This determination was performed for each treatment concentration (extract and purified compound) to establish dose–response curves. The IC50 (half-maximal inhibitory concentration in μg/mL for extract and μM for pure compounds) was calculated via nonlinear regression analysis using GraphPad 7.0 (GraphPad Software LLC, Boston, MA, USA).

general esterases = assay: General esterase inhibition in T. urticae protein homogenate; format: biochemical, Tetranychus urticae; details: pure compounds, read-out: Est IC50 (95% interval confidence)
Description: as §1
Enzyme activity of general esterases was assessed using p-nitrophenylacetate as substrate, following a previous procedure. In brief, the protein homogenate (10 µL) was mixed in a microtiter plate well with 1 mM p-nitrophenyl acetate (200 µL) in 50 mM phosphate buffer pH 7.4. The absorbance was measured at 405 nm after a 10 min incubation period using a Varioskan LUX 96-well plate reader (Thermo Fisher Scientific, Waltham, MA, USA). The specific esterase activity was calculated using the kinetic slope to convert μmoles of product per minute (6.53 mM^−1cm^−1 and 0.3 cm), thereby determining the specific enzyme activity expressed as μmol of substrate/min/mg protein.
as §2, §3

[1] = molecular target: glutathione S-transferase (GST); assay: GST inhibition in T. urticae protein homogenate; format: biochemical, Tetranychus urticae; details: pure compounds, read-out: GST IC50 (95% interval confidence)
Description: as §1
GST activity was assessed using 1-chloro-2, 4-dinitrobenzene (CDNB) as the substrate, following a previous procedure. Briefly, the reaction was initiated by mixing CDNB (50 mM in ethanol, 50 µL) and reduced glutathione (50 mM in 0.1 M phosphate-buffered saline (PBS), pH 6.5, 150 µL) in a 5 mL vial with phosphate buffer (0.1 M, pH 6.5 containing 1 mM EDTA, 2.78 mL). Subsequently, 20 µL of protein homogenate was added, and the solution was thoroughly mixed. An aliquot (200 µL) from the resulting mixture was dispensed into a microtiter plate well for measurement, with the procedure performed in triplicate for both biological and technical replicates. The absorbance of each reaction mixture at 340 nm was then recorded using kinetics on a Varioskan LUX 96-well plate reader (Thermo Fisher Scientific, Waltham, MA, USA) after a 10 min duration. The specific GST activity was calculated using the kinetic slope to convert μmoles of product per minute (9.6 mM^−1cm^−1 and 0.3 cm), thereby determining the specific enzyme activity expressed as μmol of substrate/min/mg protein.
as §2, §3

[2] = molecular target: acetylcholinesterase (AChE) and butyrylcholinesterase (BuChE) from various sources; set-up: method as in PMID 37073143; details: most potent of 34 isoquinoline alkaloids; cited from earlier work
[3] = test system: T. urticae adult females (exposed mite population); assay: Fecundity (oviposition) test for extract combined with commercial acaricides; format: in vivo, Tetranychus urticae; details: 0.06% chlorfenapyr, 0.075% cyflumetofen, 0.05% abamectin, 0.5% extract and combinations M2 to M4; surviving females after 72 h exposure
Description: (§4) Using the same methodology described in the previous section, the following treatments were evaluated in this test: absolute control (application of distilled water), relative control (10% ethanol), positive control A (clorfenapyr at 0.06%), positive control B (cyflumetofen at 0.075%), positive control C (abamectin at 0.05%), treatment 1 (0.5% extract), treatment 2 (0.5% extract + 0.06% clorfenapyr), treatment 3 (0.5% extract + 0.075% cyflumetofen), and treatment 4 (0.5% extract + 0.05% abamectin). Mortality assessments were conducted at 24, 48, and 72 h post-treatment application and adjusted using the Schneider–Orelli formula (Equation (1)). Fecundity was also measured by isolating five surviving females per treatment (after 72 h of exposure to treatments) in petri dishes. The number of eggs oviposited by each female was counted every 24 h over 5 days. Simultaneously with the susceptibility test, the repellent effect of the extract was measured by counting the number of surviving females placed outside the leaves after 24, 48, and 72 h. All laboratory tests were conducted under controlled conditions at 25 ± 2 °C, 60 ± 5% relative humidity, and a 12:12 (light/dark) photoperiod.

[4] = test system: T. urticae adult females (exposed mite population); assay: Repellency test for Z. schreberi bark extract using exposed mites; format: in vivo, Tetranychus urticae; details: 0.06% chlorfenapyr
T. urticae = details: cited from earlier work
[5] = test system: T. urticae females from the unexposed rearing system; assay: Preliminary mortality test with unexposed mites; format: in vivo, Tetranychus urticae; details: 0.4% chlorfenapyr (positive control), airbrush application
Description: A preliminary trial was conducted to determine the effect of Z. schreberi alkaloidal extract on mites for subsequent experiments, following the methodology outlined by Numa et al. (2015), with certain modifications. Briefly, the bioassay comprised a bean leaf with its underside facing upward, which was placed in a petri dish and its edges lined with cotton moistened using distilled water. Ten T. urticae females from the unexposed rearing system were situated on each leaf. The bioassay on females was driven by their pivotal role in population dynamics, as they are the primary contributors to new individuals. The net reproductive rate per generation (Ro) or population replacement rate is directly dependent on female reproductive capabilities. Consequently, any lethal or sublethal effects observed in females and oviposition will directly influence population growth. This approach led us to assess the potential of the extracts as a promising strategy for pest control, considering their impact on the crucial factor of population expansion. Subsequently, each dish was sealed with plastic wrap post-application of treatments. The evaluated treatments comprised an absolute control (mites without any application), a positive control (chlorfenapyr at 0.4%), and the alkaloidal extract of Z. schreberi at 2%. […] Deceased mites were counted 24 h post-application.

[6] = test system: T. urticae adult females (exposed mite population); assay: Mortality test for extract combined with commercial acaricides (exposed mites); format: in vivo, Tetranychus urticae
Description: as §4

[7] = test system: T. urticae adult females (exposed mite population); assay: Mortality test for Z. schreberi bark extract using exposed mites (leaf-immersion); format: in vivo, Tetranychus urticae; details: 0.06% chlorfenapyr (PC, commercially recommended dose)
Text: The experimental setup involved a transparent cylindrical container with a 3.5 cm diameter filter paper disk placed at the bottom, moistened with distilled water. Bean leaf disks, previously immersed in the respective extract solution and air-dried, were then positioned on the paper disk. The container lid underwent modification, featuring a centrally located circular opening. A metal mesh, perforated with small holes, was affixed using silicone around this opening to facilitate ventilation and prevent mites from escaping. Concentrations ranging from 2, 1, 0.5, and 0.25, to 0.125% of the Z. schreberi bark alkaloidal extract were evaluated diluted in 10% ethanol. These concentrations were selected since they comprise typical doses for botanical pesticides, and, consequently, they were standardized in previous studies in our laboratory to assess botanical extracts. Additionally, three control treatments were employed: an absolute control (application of distilled water), a relative control (10% ethanol), and a positive control (clorfenapyr at 0.06%). Mortality assessments were conducted at 24, 48, and 72 h post-treatment application. The obtained mortality data were adjusted using Schneider–Orelli’s formula (Equation (1)). […]

[8] = test system: T. cinnabarinus Boisdu-Val; set-up: method as in PMID 24861930; details: resistant strain; cited from earlier work
[9] = molecular target: T1, acetylcholinesterase (AChE) (Tetranychus urticae, UniProt D8V7J9); format: biochemical; details: pure compounds; T. urticae protein homogenate; read-out: AChE IC50 (95% interval confidence)
T1 sequence (D8V7J9 74-665): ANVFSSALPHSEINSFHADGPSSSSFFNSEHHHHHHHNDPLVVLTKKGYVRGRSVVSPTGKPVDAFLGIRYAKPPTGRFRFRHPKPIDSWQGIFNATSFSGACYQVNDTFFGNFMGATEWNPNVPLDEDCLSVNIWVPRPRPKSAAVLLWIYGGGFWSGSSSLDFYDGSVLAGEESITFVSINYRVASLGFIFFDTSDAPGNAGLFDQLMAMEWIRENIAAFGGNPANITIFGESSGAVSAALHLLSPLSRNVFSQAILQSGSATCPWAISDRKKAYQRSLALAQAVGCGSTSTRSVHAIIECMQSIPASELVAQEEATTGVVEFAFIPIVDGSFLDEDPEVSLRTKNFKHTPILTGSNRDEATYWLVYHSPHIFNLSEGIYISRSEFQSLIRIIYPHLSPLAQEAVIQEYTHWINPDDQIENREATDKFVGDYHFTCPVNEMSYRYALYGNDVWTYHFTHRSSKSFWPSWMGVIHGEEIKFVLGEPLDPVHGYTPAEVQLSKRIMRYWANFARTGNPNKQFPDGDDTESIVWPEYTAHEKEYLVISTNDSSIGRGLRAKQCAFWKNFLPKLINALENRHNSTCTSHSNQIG
Description: The protein homogenate from T. urticae adult females (n = 50) was prepared by homogenizing them in 500 μL of 0.1 M phosphate buffer (pH 7.2) in an ice bath. After homogenization, the mixture was centrifuged at 12,000× g for 20 min at 4 °C. […] The protein content within the homogenate was quantified using the linearized Bradford micromethod [40], employing bovine serum albumin as an external standard. A calibration curve was established based on the ratio of absorbance measurements at 590 nm and 450 nm, ensuring linearity with varying protein concentrations [40]. The resulting supernatant was subsequently stored at −20 °C for further enzyme analysis.
The Ellman method was employed to assess AChE activity in both untreated and Z. schreberi-treated mites, following a previous procedure [41]. […]
Further investigation involved determining the inhibition of the test enzymes (i.e., AChE, GST, esterase, and PMO). […] The final absorbance measurements of each treatment (At) and control (Ac) were related to the calculated enzyme inhibition percentage using Equation (3). […]

## COc1ccc2cc3[n+](cc2c1O)CCc1cc2c(cc1-3)OCO2 [Compound 3, berberrubine]
P450 monooxygenase (PMO)
  IC50: 62.7 µM
General esterases
  IC50: > 300 µM
[1]
  IC50: 5.61 µM

## COc1ccc2c(c[n+](C)c3c4cc5c(cc4ccc23)OCO5)c1OC [Compound 4, chelerythrine]
P450 monooxygenase (PMO)
  IC50: 89.6 µM
General esterases
  IC50: > 300 µM
[1]
  IC50: 11.7 µM

## COc1ccc2cc3[n+](cc2c1OC)CCc1cc2c(cc1-3)OCO2 [Compound 6, berberine]
P450 monooxygenase (PMO)
  IC50: 386 µM
General esterases
  IC50: > 300 µM
[1]
  IC50: 1.24 µM
[2]
  IC50: 0.72 µg/mL

## COc1c(O)ccc2cnc3c4cc5c(cc4ccc3c12)OCO5 [Compound 9, zanthoxyline]
P450 monooxygenase (PMO)
  IC50: 8.37 µM
General esterases
  IC50: 289 µM
[1]
  IC50: 21.5 µM

## CCOCn1c(-c2ccc(Cl)cc2)c(C#N)c(Br)c1C(F)(F)F [chlorfenapyr]
[3]
  Average fecundity per female over 5 days compared to controls AC and RC: statistically significant reduction
[4]
  Repellency after 72 h: lowest repellency
T. urticae; two resistant strains of T. urticae, listed as clorfenapyr
  LD50: 0.08% and 0.29%
[5]
  Corrected mortality after 24 h: 93.3%
[6]; 0.06% chlorfenapyr alone (PCA)
  Corrected average mortality after 72 h: 20.9%
[7]
  Corrected average mortality after 72 h: 24.6%

## COCCOC(=O)C(C#N)(C(=O)c1ccccc1C(F)(F)F)c1ccc(C(C)(C)C)cc1 (stereo not shown) [cyflumetofen]
[8]
  LD50: 0.0016%
[3]
  Average fecundity per female over 5 days compared to controls AC and RC: statistically significant reduction
T. urticae; susceptible strain of T. urticae
  LD50: 0.00011%
[6]; 0.075% cyflumetofen alone (PCB)
  Corrected average mortality after 72 h: 32.5%

## abamectin
[3]
  Average fecundity per female over 5 days compared to controls AC and RC: statistically significant reduction

## fagaridine [Compound 5]
P450 monooxygenase (PMO)
  IC50: 20.9 µM
General esterases
  IC50: > 300 µM
[1]
  IC50: 112 µM
[9]
  IC50: 14.6 µM
